Laboratory results from ChEMBL document CHEMBL1201862, “PubChem BioAssay data set” (2004).
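Following 48 hours of exposure in 96-well plates, responses at five concentrations were used to interpolate endpoints linearly. Abbreviation: GI50, concentration required for 50% inhibition of growth.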 Calls of active or inactive are those of the source. No stated cut-off is given here; in the data, active = GI50 up to about 1.1 µM and inactive = higher.

Columns and labels:
Experiment in all cases: NCI-60 cell line screen, 48 h
786-0 = test system: 786-0
A498 = test system: A498
A549 = test system: A549
ACHN = test system: ACHN
BT-549 = test system: BT-549
CAKI-1 = test system: CAKI-1
CCRF-CEM = test system: CCRF-CEM
COLO 205 = test system: COLO 205
DU-145 = test system: DU-145
EKVX = test system: EKVX
HCC 2998 = test system: HCC 2998
HCT-116 = test system: HCT-116
HCT-15 = test system: HCT-15
HL-60 = test system: HL-60
HOP-62 = test system: HOP-62
HOP-92 = test system: HOP-92
HT-29 = test system: HT-29
Hs-578T = test system: Hs-578T
IGROV-1 = test system: IGROV-1
K562 = test system: K562
KM12 = test system: KM12
LOX IMVI = test system: LOX IMVI
M14 = test system: M14
MCF7 = test system: MCF7
MDA-MB-231 = test system: MDA-MB-231
MDA-MB-435 = test system: MDA-MB-435
MDA-N = test system: MDA-N
MOLT-4 = test system: MOLT-4
NCI-H226 = test system: NCI-H226
NCI-H23 = test system: NCI-H23
NCI-H460 = test system: NCI-H460
NCI-H522 = test system: NCI-H522
NCI/ADR-RES = test system: NCI/ADR-RES
OVCAR-3 = test system: OVCAR-3
OVCAR-4 = test system: OVCAR-4
OVCAR-5 = test system: OVCAR-5
OVCAR-8 = test system: OVCAR-8
PC-3 = test system: PC-3
RPMI-8226 = test system: RPMI-8226
RXF 393 = test system: RXF 393
SF-268 = test system: SF-268
SF-295 = test system: SF-295
SF-539 = test system: SF-539
SK-MEL-28 = test system: SK-MEL-28
SK-MEL-2 = test system: SK-MEL-2
SK-MEL-5 = test system: SK-MEL-5
SK-OV-3 = test system: SK-OV-3
SN12C = test system: SN12C
SNB-19 = test system: SNB-19
SNB-75 = test system: SNB-75
SR = test system: SR
SW-620 = test system: SW-620
TK-10 = test system: TK-10
U-251 = test system: U-251
UACC-257 = test system: UACC-257
UACC-62 = test system: UACC-62
UO-31 = test system: UO-31
Malme-3M = test system: Malme-3M
T47D = test system: T47D

With `CCCCCCOc1ccc(C(=O)NOC)cc1` as the compound, how does the GI50 (786-0) read?
Its GI50 is > 100 µM (inactive).

And the GI50 (A498)?
Its GI50 is 99.1 µM (inactive).

And the GI50 (A549)?
Its GI50 is 66.7 µM (inactive).

And the GI50 (ACHN)?
The GI50 was > 100 µM (inactive).

What about the GI50 (BT-549) of the same compound?
The GI50 was 82.8 µM (inactive).

And the GI50 (CAKI-1)?
Its GI50 is 96.8 µM (inactive).

And the GI50 (CCRF-CEM)?
Its GI50 is > 100 µM (inactive).

And the GI50 (COLO 205)?
The GI50 was > 100 µM (inactive).

What about the GI50 (DU-145) of the same compound?
The GI50 was > 100 µM (inactive).

What about the GI50 (EKVX) of the same compound?
The GI50 was > 100 µM (inactive).

And the GI50 (HCC 2998)?
Its GI50 is > 100 µM (inactive).

What about the GI50 (HCT-116) of the same compound?
Its GI50 is > 100 µM (inactive).

What about the GI50 (HCT-15) of the same compound?
The GI50 was > 100 µM.

What about the GI50 (HL-60) of the same compound?
Its GI50 is 26.9 µM (inactive).

What about the GI50 (HOP-62) of the same compound?
The GI50 was > 100 µM (inactive).

And the GI50 (HOP-92)?
The GI50 was > 100 µM (inactive).

What about the GI50 (HT-29) of the same compound?
The GI50 was > 100 µM (inactive).

What about the GI50 (Hs-578T) of the same compound?
The GI50 was > 100 µM (inactive).

What about the GI50 (IGROV-1) of the same compound?
Its GI50 is > 100 µM (inactive).

What about the GI50 (K562) of the same compound?
Its GI50 is 40.4 µM (inactive).

What about the GI50 (KM12) of the same compound?
The GI50 was > 100 µM (inactive).

And the GI50 (LOX IMVI)?
The GI50 was > 100 µM (inactive).

What about the GI50 (M14) of the same compound?
Its GI50 is > 100 µM (inactive).

What about the GI50 (MCF7) of the same compound?
The GI50 was > 100 µM (inactive).

And the GI50 (MDA-MB-231)?
The GI50 was 80.5 µM (inactive).

And the GI50 (MDA-MB-435)?
Its GI50 is > 100 µM (inactive).

What about the GI50 (MDA-N) of the same compound?
Its GI50 is > 100 µM (inactive).

What about the GI50 (MOLT-4) of the same compound?
The GI50 was 24.8 µM (inactive).

And the GI50 (NCI-H226)?
Its GI50 is > 100 µM (inactive).

And the GI50 (NCI-H23)?
Its GI50 is > 100 µM (inactive).

What about the GI50 (NCI-H460) of the same compound?
Its GI50 is > 100 µM (inactive).

And the GI50 (NCI-H522)?
The GI50 was > 100 µM (inactive).

What about the GI50 (NCI/ADR-RES) of the same compound?
Its GI50 is > 100 µM (inactive).

And the GI50 (OVCAR-3)?
The GI50 was > 100 µM (inactive).

And the GI50 (OVCAR-4)?
Its GI50 is > 100 µM (inactive).

What about the GI50 (OVCAR-5) of the same compound?
Its GI50 is > 100 µM (inactive).

What about the GI50 (OVCAR-8) of the same compound?
Its GI50 is > 100 µM (inactive).

What about the GI50 (PC-3) of the same compound?
The GI50 was 60.1 µM (inactive).

And the GI50 (RPMI-8226)?
The GI50 was 36 µM (inactive).

And the GI50 (RXF 393)?
Its GI50 is > 100 µM (inactive).

What about the GI50 (SF-268) of the same compound?
The GI50 was > 100 µM (inactive).

And the GI50 (SF-295)?
The GI50 was > 100 µM (inactive).

And the GI50 (SF-539)?
The GI50 was > 100 µM (inactive).

And the GI50 (SK-MEL-28)?
The GI50 was > 100 µM (inactive).

And the GI50 (SK-MEL-2)?
The GI50 was > 100 µM (inactive).

And the GI50 (SK-MEL-5)?
The GI50 was > 100 µM (inactive).

And the GI50 (SK-OV-3)?
Its GI50 is > 100 µM (inactive).

And the GI50 (SN12C)?
Its GI50 is > 100 µM (inactive).

And the GI50 (SNB-19)?
Its GI50 is > 100 µM (inactive).

And the GI50 (SNB-75)?
The GI50 was > 100 µM (inactive).

And the GI50 (SR)?
The GI50 was 62.5 µM (inactive).

And the GI50 (SW-620)?
The GI50 was > 100 µM (inactive).

What about the GI50 (TK-10) of the same compound?
The GI50 was > 100 µM (inactive).

What about the GI50 (U-251) of the same compound?
The GI50 was > 100 µM (inactive).

And the GI50 (UACC-257)?
Its GI50 is > 100 µM (inactive).

What about the GI50 (UACC-62) of the same compound?
The GI50 was > 100 µM (inactive).

What about the GI50 (UO-31) of the same compound?
Its GI50 is 30.3 µM (inactive).

Which GI50 (786-0) does the source give for `CN(C)c1ccc(/C=N/c2ccc(-c3nc4ccccc4o3)cc2)cc1` here?
The GI50 was 50.6 µM (inactive).

And the GI50 (A498)?
Its GI50 is 53 µM (inactive).

What about the GI50 (A549) of the same compound?
The GI50 was 46.9 µM (inactive).

What about the GI50 (ACHN) of the same compound?
The GI50 was 54.3 µM (inactive).

What about the GI50 (BT-549) of the same compound?
Its GI50 is 32.4 µM (inactive).

What about the GI50 (COLO 205) of the same compound?
Its GI50 is 30.5 µM (inactive).

And the GI50 (DU-145)?
The GI50 was 52.5 µM (inactive).

What about the GI50 (EKVX) of the same compound?
Its GI50 is 28.6 µM (inactive).

And the GI50 (HCC 2998)?
The GI50 was 14.7 µM (inactive).

What about the GI50 (HCT-116) of the same compound?
The GI50 was 53.7 µM (inactive).

And the GI50 (HCT-15)?
Its GI50 is 31.8 µM.

And the GI50 (HL-60)?
Its GI50 is 20.8 µM (inactive).

And the GI50 (HOP-62)?
Its GI50 is 35 µM (inactive).

What about the GI50 (HOP-92) of the same compound?
The GI50 was 70.3 µM (inactive).

What about the GI50 (HT-29) of the same compound?
Its GI50 is 56.2 µM (inactive).

And the GI50 (Hs-578T)?
Its GI50 is > 100 µM (inactive).

And the GI50 (IGROV-1)?
Its GI50 is 42.6 µM (inactive).

What about the GI50 (K562) of the same compound?
The GI50 was 36.7 µM (inactive).

And the GI50 (KM12)?
Its GI50 is 31.8 µM (inactive).

And the GI50 (LOX IMVI)?
The GI50 was 35.2 µM (inactive).

And the GI50 (M14)?
Its GI50 is 58.5 µM (inactive).

And the GI50 (MCF7)?
The GI50 was 40.9 µM (inactive).

What about the GI50 (MDA-MB-231) of the same compound?
Its GI50 is 53.2 µM (inactive).

What about the GI50 (MDA-MB-435) of the same compound?
Its GI50 is 30.1 µM (inactive).

And the GI50 (MOLT-4)?
The GI50 was 24.7 µM (inactive).

And the GI50 (Malme-3M)?
Its GI50 is > 100 µM (inactive).

What about the GI50 (NCI-H23) of the same compound?
The GI50 was 32.7 µM (inactive).

And the GI50 (NCI-H460)?
The GI50 was 28.8 µM (inactive).

And the GI50 (NCI-H522)?
The GI50 was 42.3 µM (inactive).

And the GI50 (NCI/ADR-RES)?
Its GI50 is 33.5 µM (inactive).

And the GI50 (OVCAR-3)?
Its GI50 is 20.3 µM (inactive).

What about the GI50 (OVCAR-4) of the same compound?
Its GI50 is 33.5 µM (inactive).

What about the GI50 (OVCAR-5) of the same compound?
Its GI50 is > 100 µM (inactive).

What about the GI50 (OVCAR-8) of the same compound?
The GI50 was 31.8 µM (inactive).

And the GI50 (PC-3)?
The GI50 was 29.7 µM (inactive).

And the GI50 (SF-268)?
Its GI50 is 79.1 µM (inactive).

And the GI50 (SF-539)?
The GI50 was 40.8 µM (inactive).

What about the GI50 (SK-MEL-28) of the same compound?
The GI50 was 67.8 µM (inactive).

What about the GI50 (SK-MEL-2) of the same compound?
Its GI50 is 30.6 µM (inactive).

What about the GI50 (SK-MEL-5) of the same compound?
The GI50 was 13 µM (inactive).

And the GI50 (SK-OV-3)?
Its GI50 is 35 µM (inactive).

And the GI50 (SN12C)?
The GI50 was 60.8 µM (inactive).

And the GI50 (SNB-19)?
The GI50 was > 100 µM (inactive).

And the GI50 (SNB-75)?
Its GI50 is 54.7 µM (inactive).

And the GI50 (SR)?
The GI50 was 36 µM (inactive).

And the GI50 (SW-620)?
Its GI50 is 86.3 µM (inactive).

What about the GI50 (T47D) of the same compound?
The GI50 was 19.4 µM (inactive).

What about the GI50 (TK-10) of the same compound?
The GI50 was 36.5 µM (inactive).

What about the GI50 (U-251) of the same compound?
Its GI50 is 31.7 µM (inactive).

What about the GI50 (UACC-257) of the same compound?
The GI50 was 25.5 µM (inactive).

And the GI50 (UACC-62)?
Its GI50 is 38.7 µM (inactive).

And the GI50 (UO-31)?
The GI50 was 48.8 µM (inactive).
